This note sets out measurements from ChEMBL document CHEMBL4321821, “Opioids as Substrates and Inhibitors of the Genetically Highly Variable Organic Cation Transporter OCT1” (J Med Chem, 2019).

The chains are these.
T1: OCT1 (SLC22A1) (Homo sapiens, UniProt O15245)
T1 sequence (O15245 whole entry): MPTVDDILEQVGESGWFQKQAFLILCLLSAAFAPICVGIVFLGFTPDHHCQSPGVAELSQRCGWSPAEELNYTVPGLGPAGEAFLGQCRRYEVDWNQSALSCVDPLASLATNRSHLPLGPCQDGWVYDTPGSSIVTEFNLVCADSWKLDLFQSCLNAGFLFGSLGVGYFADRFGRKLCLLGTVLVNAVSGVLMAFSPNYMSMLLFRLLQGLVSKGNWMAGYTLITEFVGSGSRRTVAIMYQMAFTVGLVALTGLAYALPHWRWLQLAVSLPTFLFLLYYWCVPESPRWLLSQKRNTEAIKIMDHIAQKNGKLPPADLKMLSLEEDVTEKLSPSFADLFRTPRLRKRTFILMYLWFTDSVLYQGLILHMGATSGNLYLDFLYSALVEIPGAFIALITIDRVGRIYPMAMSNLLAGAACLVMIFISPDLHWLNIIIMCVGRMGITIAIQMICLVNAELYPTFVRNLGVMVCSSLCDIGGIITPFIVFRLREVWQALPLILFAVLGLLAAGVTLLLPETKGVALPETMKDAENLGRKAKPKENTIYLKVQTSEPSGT

T2: Solute carrier family 22 member 1 (Homo sapiens, UniProt O15245)
T2 sequence (O15245 whole entry): T1 sequence (O15245 whole entry)

B1: Solute carrier family 22 member 3 (Homo sapiens) (protein)
chain: MPSFDEALQRVGEFGRFQRRVFLLLCLTGVTFAFLFVGVVFLGTQPDHYWCRGPSAAALAERCGWSPEEEWNRTAPASRGPEPPERRGRCQRYLLEAANDSASATSALSCADPLAAFPNRSAPLVPCRGGWRYAQAHSTIVSEFDLVCVNAWMLDLTQAILNLGFLTGAFTLGYAADRYGRIVIYLLSCLGVGVTGVVVAFAPNFPVFVIFRFLQGVFGKGTWMTCYVIVTEIVGSKQRRIVGIVIQMFFTLGIIILPGIAYFIPNWQGIQLAITLPSFLFLLYYWVVPESPRWLITRKKGDKALQILRRIAKCNGKYLSSNYSEITVTDEEVSNPSFLDLVRTPQMRKCTLILMFAWFTSAVVYQGLVMRLGIIGGNLYIDFFISGVVELPGALLILLTIERLGRRLPFAASNIVAGVACLVTAFLPEGIAWLRTTVATLGRLGITMAFEIVYLVNSELYPTTLRNFGVSLCSGLCDFGGIIAPFLLFRLAAVWLELPLIIFGILASICGGLVMLLPETKGIALPETVDDVEKLGSPHSCKCGRNKKTPVSRSHL
B2: Solute carrier family 22 member 1 (Homo sapiens) (protein)
chain: T1 sequence (O15245 whole entry)

One series addresses T1, OCT1 (SLC22A1). The series can be described thus: Substrate activity at human OCT1 expressed in HEK293 cells assessed as increase in compound uptake at 0.5 uM incubated for 2 mins by LC-MS/MS analysis relative to control empty vector transfected cells. In kind it is cell-based. The settings on record: HEK293 cells that express human OCT1, read-out: FC.
As for `COc1ccc2c3c1O[C@H]1[C@@H](O)C=C[C@H]4[C@@H](C2)N(C)CC[C@@]341` [CODEINE], the uptake ratio at 2 min, 0.5 µM turned out to be 0.8.
Same read-out and setting: to `CN1CC[C@@]23CCCC[C@@H]2[C@@H]1Cc1ccc(O)cc13` [DEXTRORPHAN] belongs 1.5.
On the same count and under the same terms, to `COc1ccc2c3c1O[C@H]1C(=O)CC[C@@]4(O)[C@@H](C2)NCC[C@]314` belongs 3.6.
`O=C1CC[C@@]2(O)[C@H]3Cc4ccc(O)c5c4[C@@]2(CCN3CC2CC2)[C@H]1O5` [NALTREXONE]: the uptake ratio at 2 min, 0.5 µM amounted to 1.

Tested on in a further series: not listed separately
The series can be described thus: in vitro. To be noted: PAMPA. For orientation: The PAMPA barrier holds no transporters, so it reflects passive diffusion.
Description: Passive membrane permeability by LC-MS/MS analysis based PAMPA
In general, Papp refers to the rate of passage across a membrane or cell layer, normalised by area and donor concentration. Lower therefore signals slow passage. Regarding `CNC[C@H]1CCCC[C@]1(O)c1cccc(OC)c1`, the Papp worked out at 134 nm/s.
`COc1cccc([C@@]2(O)CCCC[C@@H]2CN(C)C)c1` [(R,R)-TRAMADOL] returned an apparent permeability coefficient (Papp) of 269 nm/s.
In the case of `COc1ccc2c3c1O[C@H]1[C@@H](O)C=C[C@H]4[C@@H](C2)N(C)CC[C@@]341` [CODEINE], the Papp is 80 nm/s.
Same read-out and setting: the result for `CN1CC[C@@]23CCCC[C@@H]2[C@@H]1Cc1ccc(O)cc13` [DEXTRORPHAN] reads 54 nm/s.
`COc1ccc2c3c1O[C@H]1C(=O)CC[C@@]4(O)[C@@H](C2)NCC[C@]314` registered a Papp of 9 nm/s.
In turn, `O=C1CC[C@@]2(O)[C@H]3Cc4ccc(O)c5c4[C@@]2(CCN3CC2CC2)[C@H]1O5` [NALTREXONE] gave a Papp of 151 nm/s.

Substrate in a further series: C[N+]1(CC2CC2)CC[C@]23c4c5ccc(O)c4O[C@H]2C(=O)CC[C@@]3(O)[C@H]1C5
The series can be described thus: Substrate activity at human OCT3 expressed in HEK293 cells assessed as increase in compound uptake by measuring Km incubated for 2 mins by LC-MS/MS analysis based Michaelis-Menten plot analysis relative to control empty vector transfected cells. In kind it is cell-based.
Settings: not given
In general, Km refers to the substrate concentration at which the rate is half of its maximum. The term Vmax denotes the top rate of the reaction or transport when substrate is in excess. On to B1, for which the Km was 22.5 µM and the Vmax turned out to be 1.75e-05 µmol/min/mg.

Another series concerns the target T1, OCT1 (SLC22A1). The series can be described thus: Substrate activity at human OCT1 expressed in HEK293 cells assessed as increase in compound uptake at 0.05 uM incubated for 2 mins by LC-MS/MS analysis relative to control empty vector transfected cells. The format is cell-based. To be noted: HEK293 cells that express human OCT1, read-out: FC.
Turning to `COc1ccc2c3c1O[C@H]1[C@@H](O)C=C[C@H]4[C@@H](C2)N(C)CC[C@@]341` [CODEINE], the uptake ratio at 2 min, 0.05 µM came out at 0.7.
Turning to `CN1CC[C@@]23CCCC[C@@H]2[C@@H]1Cc1ccc(O)cc13` [DEXTRORPHAN], the uptake ratio at 2 min, 0.05 µM amounted to 2.1.
For `COc1ccc2c3c1O[C@H]1C(=O)CC[C@@]4(O)[C@@H](C2)NCC[C@]314`, the uptake ratio at 2 min, 0.05 µM was determined as 4.
In the case of `O=C1CC[C@@]2(O)[C@H]3Cc4ccc(O)c5c4[C@@]2(CCN3CC2CC2)[C@H]1O5` [NALTREXONE], the uptake ratio at 2 min, 0.05 µM stood at 0.8.

Substrate in the next series: CNS(=O)(=O)Cc1ccc2[nH]cc(CCN(C)C)c2c1
The series can be described thus: Substrate activity at human OCT1 expressed in HEK293 cells assessed as increase in compound uptake by measuring Km incubated for 2 mins by LC-MS/MS analysis based Michaelis-Menten plot analysis relative to control empty vector transfected cells. The format is cell-based.
Settings: not given
As to B2, the Km turned out to be 55 µM.

The target in the next series is T1, OCT1 (SLC22A1). The series can be described thus: Substrate activity at human OCT1 expressed in HEK293 cells assessed as increase in compound uptake at 0.1 uM incubated for 2 mins by LC-MS/MS analysis relative to control empty vector transfected cells. The format is cell-based. To be noted: HEK293 cells that express human OCT1, read-out: FC.
`COc1ccc2c3c1O[C@H]1[C@@H](O)C=C[C@H]4[C@@H](C2)N(C)CC[C@@]341` [CODEINE]: the uptake ratio at 2 min, 0.1 µM came to 1.
Turning to `CN1CC[C@@]23CCCC[C@@H]2[C@@H]1Cc1ccc(O)cc13` [DEXTRORPHAN], the uptake ratio at 2 min, 0.1 µM was 1.9.
Consider `COc1ccc2c3c1O[C@H]1C(=O)CC[C@@]4(O)[C@@H](C2)NCC[C@]314`, for which the uptake ratio at 2 min, 0.1 µM is 3.9.
Still for that read-out and setting: to `O=C1CC[C@@]2(O)[C@H]3Cc4ccc(O)c5c4[C@@]2(CCN3CC2CC2)[C@H]1O5` [NALTREXONE] belongs 0.8.

The next series has as its target T2, Solute carrier family 22 member 1. The series can be described thus: Inhibition of human OCT1 expressed in HEK293 cells assessed as reduction in ASP+ substrate uptake by microplate reader based analysis. In kind it is cell-based.
Settings: not given
Broadly, the IC50 is the midpoint of a concentration-inhibition curve. Consider `CNC[C@H]1CCCC[C@]1(O)c1cccc(OC)c1`, for which the half-maximal inhibitory concentration (IC50) was 55.7 µM.
Same read-out and setting: to `COc1cccc([C@@]2(O)CCCC[C@@H]2CN(C)C)c1` [(R,R)-TRAMADOL] belongs 88.8 µM; to `COc1ccc2c3c1O[C@H]1[C@@H](O)C=C[C@H]4[C@@H](C2)N(C)CC[C@@]341` [CODEINE], 236 µM.
On the same count and under the same terms, the result for `CN1CC[C@@]23CCCC[C@@H]2[C@@H]1Cc1ccc(O)cc13` [DEXTRORPHAN] reads 6 to 6.4 µM.
For `COc1ccc2c3c1O[C@H]1C(=O)CC[C@@]4(O)[C@@H](C2)NCC[C@]314`, the IC50 stood at 200 µM.
Still for that read-out and setting: to `O=C1CC[C@@]2(O)[C@H]3Cc4ccc(O)c5c4[C@@]2(CCN3CC2CC2)[C@H]1O5` [NALTREXONE] belongs 158 µM.
